Source: PubChem BioAssay (NCI)
“And” between values parts separate entries of the source, which are not always exact repeats. Equal entries are not always repeated.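 Step 1: Grow cells in 96-well plates. Step 2: Expose to compound for 48 hours at 5 concentrations. Step 3: Interpolate endpoints linearly; if unreached, use highest concentration. Abbreviation: GI50, concentration required for 50% inhibition of growth. TGI: total growth inhibition.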

Tests used:
Assay in all cases: NCI anticancer screen, dose series, 48 h
SNB-75 CNS = tested on: SNB-75 CNS
SK-MEL-5 melanoma = tested on: SK-MEL-5 melanoma
COLO 205 colon = tested on: COLO 205 colon
SW-620 colon = tested on: SW-620 colon
SK-OV-3 ovarian = tested on: SK-OV-3 ovarian
A498 renal = tested on: A498 renal
786-0 renal = tested on: 786-0 renal
MDA-N = tested on: MDA-N
RXF 393 renal = tested on: RXF 393 renal
SF-268 CNS = tested on: SF-268 CNS
SF-295 CNS = tested on: SF-295 CNS

Structure (SMILES)	TGI (SNB-75 CNS)	TGI (SK-MEL-5 melanoma) [µM]	TGI (COLO 205 colon) [µM]	TGI (SW-620 colon) [µM]	TGI (SK-OV-3 ovarian) [µM]	TGI (A498 renal) [µM]	TGI (786-0 renal) [µM]	TGI (MDA-N) [µM]	TGI (RXF 393 renal) [µM]	TGI (SF-268 CNS) [µM]	TGI (SF-295 CNS) [µM]	GI50 (SNB-75 CNS) [nM]
COC1CC(COCc2ccccc2)CC(OC)O1 (stereo unspecified)	> 100 µM	> 100	> 100	> 100	> 100	> 100	> 100	> 100	> 100	> 100	> 100	
O=C1C(=O)N(c2cccc(C(F)(F)F)c2)C(=S)N1c1ccccc1	> 100 µM	32	30.5	> 100	70.4	59.5	> 100	71.9	> 100	> 100	> 100	
CCC(=O)Nc1ccc(NC(C#N)c2cccc(Oc3ccccc3)c2)cc1 (stereo unspecified)	> 100 µM	48.1	> 100	> 100	> 100	> 100	> 100	> 100	> 100	> 100	> 100	
C/C=C(\C)C(O)C(C)C(O)C/C=C(C)/C=C(\C)C/C(C)=C/C/C=C(\C)C(O)C(C)c1ccc(CCC)c(=O)o1 (stereo unspecified)	25.2 µM	14.3	16.8	28.4	94.5	50.6	55.7	22.8	77.3	37.5	16.9	
C=C(CCC/C(C)=C/C=C/[C@@H](C)CCCc1ccoc1)C[C@@H]1OC(=O)[C@H](C)[C@@H]1O	19 µM	14.3	20.5	23.7	15.8	15.3	31.5	21.5	19.3	18.5	19.1	
COC(=O)c1cc(C(=CCC[C@H]2CC[C@@]3(C)C(CCC4C3CC[C@@]3(C)C4CC[C@@H]3C(C)CCCC(C)C)C2)c2cc(Cl)c(O)c(C(=O)OC)c2)cc(Cl)c1O (stereo partly specified)	> 10 µM	> 10	> 10	> 10	> 10		> 10	> 10	> 10	> 10	> 10	
CCOC(=O)C1c2[nH]c3ccccc3c2CCN1C(=O)c1ccc(OC)o1 (stereo unspecified)	> 10 µM	> 10	> 10	> 10	> 10	> 10	> 10	> 10	> 10	> 10	> 10	
COc1ccc(C2SCC(=O)N2NC(=O)c2ccc(NC(C)=O)cc2)c(OC)c1 (stereo unspecified)	> 100 µM	> 100	> 100	> 100	> 100	> 100	> 100	> 100	> 100	> 100	> 100	
CC(C)NC(=O)N(Nc1ccccc1)C(C)(C)C	> 100 µM	> 100	> 100	> 100	> 100	> 100	> 100	> 100	> 100		> 100	
O=c1ccn(COC(COCc2ccccc2)COCc2ccccc2)c(=O)[nH]1	> 100 µM	> 100	> 100	> 100	> 100	> 100		> 100	> 100		> 100	
CC(=O)OCC1OC(n2c(-c3ccccc3)c(C(C)=O)c(-c3cccc4ccccc34)c(C#N)c2=S)C(OC(C)=O)C(OC(C)=O)C1OC(C)=O (stereo unspecified)	> 100 µM	> 100	> 100	> 100	> 100	> 100	> 100	> 100	> 100	> 100	> 100	22
CN(C)C(c1ccccc1)C1COC2Cc3ccccc3C1O2 (stereo unspecified)	89 µM and 89.4 µM	> 100	> 100		> 100	> 100	> 100	> 100	> 100	> 100	> 100	
CS(=O)(=O)c1ccc(N=C/C=C/Nc2ccc(S(C)(=O)=O)cc2)cc1	> 100 µM	> 100	> 100	> 100	> 100	> 100	> 100	> 100	> 100	> 100	> 100	
COC(=O)C(Cc1c[nH]c2ccccc12)NC(=O)c1ccc(-c2ccc(Cl)cc2Cl)o1 (stereo unspecified)	> 100 µM		> 100	> 100	> 100	67.9	> 100	> 100	> 100	> 100	> 100	
COC(=O)C1(C#N)C(C)(C)N=C(c2ccccc2)C12CCCCC2 (stereo unspecified)		> 100	> 100	> 100	> 100	> 100	> 100	> 100	> 100	> 100	> 100	
CC(C)=CCC/C(C)=C/CC/C(C)=C/CC/C(C)=C/CC/C(C)=C/CC/C(C)=C/CC/C(C)=C/CC/C(C)=C/CC/C(C)=C/CO	> 100 µM	> 100	> 100	> 100	> 100	> 100	> 100	> 100	> 100	> 100	> 100	
CC1(C)Cc2nc3c(cc2C(=O)C1C=N/C(C#N)=C(\N)C#N)C(=O)C(C=N/C(C#N)=C(\N)C#N)C(C)(C)C3 (stereo unspecified)	4.17 µM	4.66	7.04	> 20.5	> 34.9	15.4	3.47	11.8	3.04	3.39	7.56	
CC1SCc2nc3ccccc3n21 (stereo unspecified)	83.3 µM	> 100	> 100		> 100	> 100	> 100	> 100	> 100	> 100	> 100	
CC[C@@]1(C)CCC2c3ccc(O)cc3CC[C@H]2C1C (stereo partly specified)	37.2 µM	30.7	35.1	32.4		34	29.8	25.8	26	30.1	34.6	
O=c1[nH]nc(-c2ccccc2)n1/N=C/c1cccs1	> 100 µM		35.8	> 100	> 100	> 100	> 100	> 100	85.2	> 100	> 100	
